Source: PubChem BioAssay (NCI)
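Abbreviation: GI50, concentration required for 50% inhibition of growth. TGI marks complete inhibition of growth.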

Legend:
Assay in all cases: NCI-60 cell line screen, 384-well format
786-0 renal = system: 786-0 renal
A498 renal = system: A498 renal
A549 NSCLC = system: A549 NSCLC
ACHN renal = system: ACHN renal
BT-549 breast = system: BT-549 breast
CAKI-1 renal = system: CAKI-1 renal
CCRF-CEM leukemia = system: CCRF-CEM leukemia
COLO 205 colon = system: COLO 205 colon
DU-145 prostate = system: DU-145 prostate
EKVX NSCLC = system: EKVX NSCLC
HCC-2998 colon = system: HCC-2998 colon
HCT-116 colon = system: HCT-116 colon
HCT-15 colon = system: HCT-15 colon
HL-60(TB) leukemia = system: HL-60(TB) leukemia
HOP-62 NSCLC = system: HOP-62 NSCLC
HOP-92 NSCLC = system: HOP-92 NSCLC
HS 578T breast = system: HS 578T breast
IGROV1 ovarian = system: IGROV1 ovarian
K-562 leukemia = system: K-562 leukemia
KM12 colon = system: KM12 colon
LOX IMVI melanoma = system: LOX IMVI melanoma
M14 melanoma = system: M14 melanoma
MALME-3M melanoma = system: MALME-3M melanoma
MDA-MB-231 breast = system: MDA-MB-231 breast
MDA-MB-435 melanoma = system: MDA-MB-435 melanoma
MDA-MB-468 breast = system: MDA-MB-468 breast
MOLT-4 leukemia = system: MOLT-4 leukemia
NCI-H226 lung = system: NCI-H226 lung
NCI-H23 lung = system: NCI-H23 lung
NCI-H322M lung = system: NCI-H322M lung
NCI-H460 NSCLC = system: NCI-H460 NSCLC
NCI-H522 lung = system: NCI-H522 lung
NCI/ADR-RES ovarian = system: NCI/ADR-RES ovarian
OVCAR-3 ovarian = system: OVCAR-3 ovarian
OVCAR-4 ovarian = system: OVCAR-4 ovarian
OVCAR-5 ovarian = system: OVCAR-5 ovarian
OVCAR-8 ovarian = system: OVCAR-8 ovarian
PC-3 prostate = system: PC-3 prostate
RPMI-8226 leukemia = system: RPMI-8226 leukemia
RXF 393 renal = system: RXF 393 renal
SF-268 CNS = system: SF-268 CNS
SF-295 CNS = system: SF-295 CNS
SF-539 CNS = system: SF-539 CNS
SK-MEL-2 melanoma = system: SK-MEL-2 melanoma
SK-MEL-28 melanoma = system: SK-MEL-28 melanoma
SK-MEL-5 melanoma = system: SK-MEL-5 melanoma
SK-OV-3 ovarian = system: SK-OV-3 ovarian
SN12C renal = system: SN12C renal
SNB-19 CNS = system: SNB-19 CNS
SNB-75 CNS = system: SNB-75 CNS
SR leukemia = system: SR leukemia
SW-620 colon = system: SW-620 colon
T-47D breast = system: T-47D breast
TK-10 renal = system: TK-10 renal
U251 glioblastoma = system: U251 glioblastoma
UACC-257 melanoma = system: UACC-257 melanoma
UACC-62 melanoma = system: UACC-62 melanoma
UO-31 renal = system: UO-31 renal

## CC[C@@]1(O)C(=O)OCc2c1cc1n(c2=O)Cc2c-1nc1cc(F)c(C)c3c1c2[C@@H](NC(=O)CO)CC3
786-0 renal
  GI50: < 10 nM
  TGI: 10.1 nM
A498 renal
  GI50: < 10 nM
  TGI: 142 nM
A549 NSCLC
  GI50: 49.8 nM
  TGI: 944 nM
ACHN renal
  GI50: < 10 nM
  TGI: 11.1 nM
BT-549 breast
  GI50: < 10 nM
  TGI: 40.2 nM
CAKI-1 renal
  GI50: < 10 nM
  TGI: 103 nM
CCRF-CEM leukemia
  GI50: < 10 nM
  TGI: < 10 nM
COLO 205 colon
  GI50: < 10 nM
  TGI: 537 nM
DU-145 prostate
  GI50: < 10 nM
  TGI: < 10 nM
EKVX NSCLC
  GI50: 42.9 nM
  TGI: 2650 nM
HCC-2998 colon
  GI50: 15.6 nM
  TGI: 212 nM
HCT-116 colon
  GI50: < 10 nM
  TGI: 159 nM
HCT-15 colon
  GI50: 17.5 nM
  TGI: 1180 nM
HL-60(TB) leukemia
  GI50: < 10 nM
  TGI: < 10 nM
HOP-62 NSCLC
  GI50: < 10 nM
  TGI: < 10 nM
HOP-92 NSCLC
  GI50: < 10 nM
  TGI: 58.9 nM
HS 578T breast
  GI50: < 10 nM
  TGI: 2360 nM
IGROV1 ovarian
  GI50: 12.8 nM
  TGI: 1140 nM
K-562 leukemia
  GI50: < 10 nM
  TGI: 171 nM
KM12 colon
  GI50: 11.6 nM
  TGI: 149 nM
LOX IMVI melanoma
  GI50: < 10 nM
  TGI: 37.5 nM
M14 melanoma
  GI50: < 10 nM
  TGI: 12.8 nM
MALME-3M melanoma
  GI50: < 10 nM
  TGI: 237 nM
MDA-MB-231 breast
  GI50: 99.6 nM
  TGI: 1520 nM
MDA-MB-435 melanoma
  GI50: 24.3 nM
  TGI: 467 nM
MDA-MB-468 breast
  GI50: < 10 nM
  TGI: < 10 nM
MOLT-4 leukemia
  GI50: < 10 nM
  TGI: < 10 nM
NCI-H226 lung
  GI50: < 10 nM
  TGI: 49.6 nM
NCI-H23 lung
  GI50: < 10 nM
  TGI: < 10 nM
NCI-H322M lung
  GI50: 54.2 nM
  TGI: 684 nM
NCI-H460 NSCLC
  GI50: < 10 nM
  TGI: 23.4 nM
NCI-H522 lung
  GI50: < 10 nM
  TGI: 19 nM
NCI/ADR-RES ovarian
  GI50: 53.6 nM
  TGI: 256 nM
OVCAR-3 ovarian
  GI50: < 10 nM
  TGI: 38.4 nM
OVCAR-4 ovarian
  GI50: 131 nM
  TGI: 419 nM
OVCAR-5 ovarian
  GI50: 35.2 nM
  TGI: 268 nM
OVCAR-8 ovarian
  GI50: < 10 nM
  TGI: 104 nM
PC-3 prostate
  GI50: 97.3 nM
  TGI: 3880 nM
RPMI-8226 leukemia
  GI50: < 10 nM
  TGI: 20.6 nM
RXF 393 renal
  GI50: < 10 nM
  TGI: < 10 nM
SF-268 CNS
  GI50: < 10 nM
  TGI: < 10 nM
SF-295 CNS
  GI50: < 10 nM
  TGI: < 10 nM
SF-539 CNS
  GI50: < 10 nM
  TGI: 15.6 nM
SK-MEL-2 melanoma
  GI50: 33.1 nM
  TGI: 105 nM
SK-MEL-28 melanoma
  GI50: < 10 nM
  TGI: 270 nM
SK-MEL-5 melanoma
  GI50: < 10 nM
  TGI: 16.4 nM
SK-OV-3 ovarian
  GI50: < 10 nM
  TGI: 28.1 nM
SN12C renal
  GI50: < 10 nM
  TGI: < 10 nM
SNB-19 CNS
  GI50: < 10 nM
  TGI: 12.7 nM
SNB-75 CNS
  GI50: < 10 nM
  TGI: 10.8 nM
SR leukemia
  GI50: < 10 nM
  TGI: < 10 nM
SW-620 colon
  GI50: < 10 nM
  TGI: 223 nM
T-47D breast
  GI50: < 10 nM
  TGI: 101 nM
TK-10 renal
  GI50: 47.6 nM
  TGI: 1660 nM
U251 glioblastoma
  GI50: < 10 nM
  TGI: 13.6 nM
UACC-257 melanoma
  GI50: 19.4 nM
  TGI: 226 nM
UACC-62 melanoma
  GI50: < 10 nM
  TGI: < 10 nM
UO-31 renal
  GI50: 20.6 nM
  TGI: 116 nM
